# According to patent publication EP2607478A1, “Phenanthroline treated MSC” (Universiteit Twente, priority 2011, dated 2013):
# System: MSCs
# Experiment: Whole genome expression analysis (Illumina microarray) of treated MSCs
# Format: cell-based, Human
# Conditions: DFO versus Bas
# Method: MSCs were seeded in T25 flasks at 5000 cells/cm^2 and allowed to attach overnight in proliferation medium. […] After 48 hours, RNA was isolated as described above. From 500 ng of RNA, cRNA was synthesized using the Illumina TotalPrep RNA amplification Kit (Ambion), according to the manufacturer's protocol and the quality of RNA and cRNA was verified on a Bioanalyzer 2100 (Agilent). Microarrays were performed using Illumina HT-12 v4 expression Beadchips, according to the manufacturer's protocol. Briefly, 750 ng of cRNA was hybridized on the array overnight after which the array was washed and blocked. Then, by addition of streptavidin Cy-3 a fluorescent signal was developed. Arrays were scanned on an Illumina iScan reader and raw intensity values were background corrected in GenomeStudio (Illumina). Further data processing and statistical testing were performed with R and Bioconductor statistical software (www.bioconductor.org), using package lumi. Raw intensity values were transformed using variance stabilization and a quantile normalization was performed. A linear modelling approach with empirical Bayesian methods, as implemented in Limma package (54), was applied for differential expression analysis of the resulting probe-level expression values. A gene list, containing only those genes with an absolute 1.5-fold change between different treatments, was uploaded to Ingenuity Pathway Analysis (IPA) software and used for core analysis. Pathways or networks with a p-value of 0.05 were considered statistically significant.
smiles,measurement,setting,value
"CC(=O)N(O)CCCCCNC(=O)CCC(=O)N(O)CCCCCNC(=O)CCC(=O)N(O)CCCCCN [DFO, reference compound]",logFC(D142_ DFO - D142_BAS),ProbeID ILMN_1699644,"2,52"
same,logFC(D142_ DFO - D142_BAS) RRAGD,ProbeID ILMN_1699772,"2,43"
same,logFC(D142_ DFO - D142_BAS) QPRT,ProbeID ILMN_1700268,"-2,44"
same,logFC(D142_ DFO - D142_BAS) SULF1,ProbeID ILMN_1702363,"-2,42"
same,logFC(D142_ DFO - D142_BAS) TNFRSF19,ProbeID ILMN_1704154,"-2,00"
same,logFC(D142_ DFO - D142_BAS) SLC6A10P,ProbeID ILMN_1704446,"2,82"
same,logFC(D142_ DFO - D142_BAS) PHGDH,ProbeID ILMN_1704537,"2,18"
same,logFC(D142_ DFO - D142_BAS) ANGPTL4,ProbeID ILMN_1707727,"6,19"
same,logFC(D142_ DFO - D142_BAS) TP53INP1,ProbeID ILMN_1714108,"2,66"
same,logFC(D142_ DFO - D142_BAS) NNMT,ProbeID ILMN_1715508,"-2,16"
same,logFC(D142_ DFO - D142_BAS) NGF,ProbeID ILMN_1716608,"2,73"
same,logFC(D142_ DFO - D142_BAS) C5orf46,ProbeID ILMN_1718866,"2,59"
same,logFC(D142_ DFO - D142_BAS) BNIP3L,ProbeID ILMN_1718961,"2,24"
same,logFC(D142_ DFO - D142_BAS) SLC7A5,ProbeID ILMN_1720373,"3,21"
same,logFC(D142_ DFO - D142_BAS) JMJD1A,ProbeID ILMN_1722532,"2,13"
same,logFC(D142_ DFO - D142_BAS) HK2,ProbeID ILMN_1723486,"2,21"
same,logFC(D142_ DFO - D142_BAS) BNIP3,ProbeID ILMN_1724658,"3,37"
same,logFC(D142_ DFO - D142_BAS) CTHRC1,ProbeID ILMN_1725090,"-2,13"
same,logFC(D142_ DFO - D142_BAS) CA9,ProbeID ILMN_1725139,"3,31"
same,logFC(D142_ DFO - D142_BAS) SLC3A2,ProbeID ILMN_1726456,"2,31"
same,logFC(D142_ DFO - D142_BAS) OLFML3,ProbeID ILMN_1727532,"-2,91"
same,logFC(D142_ DFO - D142_BAS) PRC1,ProbeID ILMN_1728934,"-2,66"
same,logFC(D142_ DFO - D142_BAS) STEAP1,ProbeID ILMN_1733094,"-2,15"
same,logFC(D142_ DFO - D142_BAS) COL12A1,ProbeID ILMN_1733756,"-2,56"
same,logFC(D142_ DFO - D142_BAS) PPP1R3C,ProbeID ILMN_1736670,"2,33"
same,logFC(D142_ DFO - D142_BAS) TMEM119,ProbeID ILMN_1738116,"-3,83"
same,logFC(D142_ DFO - D142_BAS) ULBP1,ProbeID ILMN_1738407,"2,07"
same,logFC(D142_ DFO - D142_BAS) PLAT,ProbeID ILMN_1738742,"2,03"
same,logFC(D142_ DFO - D142_BAS) TUBA1A,ProbeID ILMN_1742981,"-2,06"
same,logFC(D142_ DFO - D142_BAS) EGR2,ProbeID ILMN_1743199,"2,34"
same,logFC(D142_ DFO - D142_BAS) C1QTNF5,ProbeID ILMN_1744487,"-2,69"
same,logFC(D142_ DFO - D142_BAS) ERO1L,ProbeID ILMN_1744963,"3,58"
same,logFC(D142_ DFO - D142_BAS) CEP55,ProbeID ILMN_1747016,"-2,32"
same,logFC(D142_ DFO - D142_BAS) EGLN1,ProbeID ILMN_1749892,"2,28"
same,logFC(D142_ DFO - D142_BAS) IGFBP5,ProbeID ILMN_1750324,"2,71"
same,logFC(D142_ DFO - D142_BAS) SESN2,ProbeID ILMN_1751598,"2,18"
same,logFC(D142_ DFO - D142_BAS) PGK1,ProbeID ILMN_1755749,"2,16"
same,logFC(D142_ DFO - D142_BAS) ALDOC,ProbeID ILMN_1755974,"2,33"
same,logFC(D142_ DFO - D142_BAS) ANKRD37,ProbeID ILMN_1756417,"3,40"
same,logFC(D142_ DFO - D142_BAS) COQ2,ProbeID ILMN_1756572,"-2,03"
same,logFC(D142_ DFO - D142_BAS) NDUFA4L2,ProbeID ILMN_1756573,"5,66"
same,logFC(D142_ DFO - D142_BAS) STC1,ProbeID ILMN_1758164,"3,77"
same,logFC(D142_ DFO - D142_BAS) HIST1H2BD,ProbeID ILMN_1758623,"2,40"
same,logFC(D142_ DFO - D142_BAS) FAM107B,ProbeID ILMN_1758672,"2,18"
same,logFC(D142_ DFO - D142_BAS) LOC441019,ProbeID ILMN_1761281,"2,16"
same,logFC(D142_ DFO - D142_BAS) AK3L1,ProbeID ILMN_1764090,"2,74"
same,logFC(D142_ DFO - D142_BAS) OLFML2B,ProbeID ILMN_1765557,"-3,16"
same,logFC(D142_ DFO - D142_BAS) LOC399942,ProbeID ILMN_1765701,"-2,67"
same,logFC(D142_ DFO - D142_BAS) ENO2,ProbeID ILMN_1765796,"4,08"
